Source: ChEMBL document CHEMBL5360598, “An ECD and NMR/DP4+ Computational Pipeline for Structure Revision and Elucidation of Diphenazine-Based Natural Products” (J Nat Prod, 2023)
Calls of active or inactive are those of the source. No cut-off for these calls is given here.

Columns and labels:
[1] = biological target: Eukaryotic translation initiation factor 4E/Eukaryotic translation initiation factor 4E-binding protein 1 (Homo sapiens, UniProt P06730+Q13541); test: Inhibition of eIF4E-4E-BP1 (unknown origin) interaction by cat-ELCCA assay; assay type: protein assay
Eukaryotic translation initiation factor 4E/Eukaryotic translation initiation factor 4E-binding protein 1, sequence (P06730 whole entry): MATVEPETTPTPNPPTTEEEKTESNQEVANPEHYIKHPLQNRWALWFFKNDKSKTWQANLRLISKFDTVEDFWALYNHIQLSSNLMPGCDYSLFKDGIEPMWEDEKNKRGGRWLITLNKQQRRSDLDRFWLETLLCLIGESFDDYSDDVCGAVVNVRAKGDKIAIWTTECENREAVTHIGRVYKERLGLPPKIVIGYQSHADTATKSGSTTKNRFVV
Eukaryotic translation initiation factor 4E/Eukaryotic translation initiation factor 4E-binding protein 1, sequence (Q13541 whole entry): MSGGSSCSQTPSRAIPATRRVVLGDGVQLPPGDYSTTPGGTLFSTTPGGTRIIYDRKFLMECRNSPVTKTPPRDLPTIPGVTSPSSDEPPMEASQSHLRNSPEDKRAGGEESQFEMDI

[2] = biological target: Eukaryotic translation initiation factor 4E (Homo sapiens) (UniProt P06730); test: Binding affinity to eIF4E in HEK293 cell lysate assessed as thermal stability at 25 uM at 42 to 53 degreeC by CETSA; assay type: subcellular
Eukaryotic translation initiation factor 4E (Homo sapiens), sequence (P06730 whole entry): as the sequence (P06730 whole entry) above

[3] = system: MIA PaCa-2; test: Antiproliferative activity against human MIA PaCa-2 cells by Cell Titer Glo assay; assay type: functional, cell-based

O=C(O)c1cc2c(c3nc4c(O)cccc4nc13)[C@@H]1Cc3nc4cccc(O)c4nc3[C@@](O)(C1)O2
EC50 [1]: Not Active

O=C(O)c1ccc(O)c2nc3c4c(ccc3nc12)[C@@H]1Cc2nc3cccc(O)c3nc2[C@H](O4)[C@H]1O
EC50 ([1]; read-out: EC50): 310 µM

Oc1cccc2nc3c(O)cccc3nc12
EC50 [1]: Not Active

O=C(O)c1cc2c(c3nc4c(O)cccc4nc13)[C@@H]1Cc3nc4cccc(O)c4nc3[C@@H](O)[C@@H]1O2 [IZUMIPHENAZINE A]
EC50 ([1]; read-out: EC50): 240 µM

O=C(O)c1ccc(=O)c2nc3c4c(ccc3[nH]c1-2)[C@@H]1Cc2nc3cccc(O)c3nc2[C@H](O4)[C@H]1O
EC50 ([1]; read-out: EC50): 68 µM

O=C(O)c1cc2c(c3nc4c(O)cccc4nc13)[C@@H]1Cc3nc4cccc(O)c4nc3[C@H](O2)[C@H]1O
EC50 ([1]; read-out: EC50): 260 µM

O=C(O)c1cc2c(c3nc4c(O)cccc4nc13)O[C@@H]1[C@H](O)c3nc4cccc(O)c4nc3C[C@H]21
Activity [2]: Active
Activity [3]: inactive
EC50 ([1]; read-out: EC50): 7.8 µM
